# Measured values: patent US7157620B2, “Enhanced transformation and regeneration of transformed embryogenic pine tissue” (Mead Westvaco Corporation, priority 2000, dated 2007)
# Tests used:
# [1] = tested on: P. taeda embryogenic cell lines; experiment: Effect of ABA in preparation, recovery and selection media on transformants after Agrobacterium inoculation; format: cell-based, Pinus taeda
# Description: (§1) Seven loblolly pine cell lines or hybrid cell lines from seven widely diverse genetic backgrounds were used which had been grown, maintained, and transformed using Agrobacterium as described in Example 1 above except that the preparation medium, used for preparation and co-cultivation of the cells, either contained or lacked ABA. Following eradication using wash medium as described in Example 5 above, polyester support membranes bearing approximately 0.1 g of embryogenic tissue were divided onto recovery media either containing or lacking ABA. […] Concentrations of ABA used in all these media were 0, 10, and 30 mg/L.
# (§2) Cells were maintained on the selection media, with transfer of the polyester support membranes to fresh selection media of the same composition, every two weeks for a total of eight weeks of selection. […] The cells were also checked for the presence of sequences by PCR amplification using primers specific for both the uidA and nptII transgenes, techniques well known to those skilled in the art of plant transformation.
# [2] = tested on: P. rigida hybrid embryogenic cell line; experiment: as above; format: cell-based; conditions: line H1
# Description: as §1, §2
# [3] = tested on: Loblolly pine cell lines; experiment: ABA in selection media after biolistic transformation; format: cell-based, Pinus taeda
# Description: Loblolly pine cell lines were used which had been grown and maintained as described in Example 1 above, and prepared for biolistic transformation as described in Example 4 above. Following bombardment the support membranes bearing the bombarded embryogenic cells were transferred to DCR2 maintenance media for one week. Following this the support membranes bearing the bombarded embryogenic cells were divided among plates containing gelled DCR selection medium either with or without the addition of 10 mg/l abscisic acid (ABA), and cultured for three weeks. Cells selected on either type of selection medium during this first selection period on selection medium containing ABA were then divided among plates with and without ABA and cultured for a further three weeks. The same occurred in the next transfer, resulting in groups of cells that had been selected entirely in the absence of ABA, entirely in the presence of ABA, or in the presence of ABA for one of the three three-week selection periods.
smiles,measurement,setting,value
"CC1=CC(=O)CC(C)(C)[C@@]1(O)/C=C/C(C)=C\C(=O)O [ABA, abscisic acid]",effect of ABA in the preparation medium on the observation of transformants,[1]; 10 or 30 mg/L ABA,neutral or beneficial
same,necrotic foci in somatic embryogenic masses versus media without ABA,"[1]; 10 or 30 mg/L ABA during and after co-cultivation, all lines",fewer necrotic foci
same,Average (n = 12) number of transformants observed per selection plate,"[1]; line P1, ABA mg/l preparation/recovery/selection medium 0/0/10",0.3
same,Average (n = 12) number of transformants observed per selection plate,"[1]; line P1, ABA mg/l preparation/recovery/selection medium 0/0/30",0.0
same,Average (n = 12) number of transformants observed per selection plate,"[1]; line P1, ABA mg/l preparation/recovery/selection medium 0/10/10",0.0
same,Average (n = 12) number of transformants observed per selection plate,"[1]; line P1, ABA mg/l preparation/recovery/selection medium 0/10/30",0.1
same,Average (n = 12) number of transformants observed per selection plate,"[1]; line P1, ABA mg/l preparation/recovery/selection medium 0/30/30",0.8
same,Average (n = 12) number of transformants observed per selection plate,"[1]; line P1, ABA mg/l preparation/recovery/selection medium 10/10/10",1.3
same,Average (n = 12) number of transformants observed per selection plate,"[1]; line P1, ABA mg/l preparation/recovery/selection medium 30/10/10",0.3
same,Average (n = 12) number of transformants observed per selection plate,"[1]; line P1, ABA mg/l preparation/recovery/selection medium 30/30/30",0.4
same,Average (n = 12) number of transformants observed per selection plate,"[1]; line P2, ABA mg/l preparation/recovery/selection medium 0/0/10",5.8
same,Average (n = 12) number of transformants observed per selection plate,"[1]; line P2, ABA mg/l preparation/recovery/selection medium 0/0/30",8.8
same,Average (n = 12) number of transformants observed per selection plate,"[1]; line P2, ABA mg/l preparation/recovery/selection medium 0/10/10",1.0
same,Average (n = 12) number of transformants observed per selection plate,"[1]; line P2, ABA mg/l preparation/recovery/selection medium 0/10/30",0.3
same,Average (n = 12) number of transformants observed per selection plate,"[1]; line P2, ABA mg/l preparation/recovery/selection medium 0/30/30",5.2
same,Average (n = 12) number of transformants observed per selection plate,"[1]; line P2, ABA mg/l preparation/recovery/selection medium 10/10/10",10.0
same,Average (n = 12) number of transformants observed per selection plate,"[1]; line P2, ABA mg/l preparation/recovery/selection medium 30/10/10",5.9
same,Average (n = 12) number of transformants observed per selection plate,"[1]; line P2, ABA mg/l preparation/recovery/selection medium 30/30/30",5.3
same,Average (n = 12) number of transformants observed per selection plate,"[1]; line P3, ABA mg/l preparation/recovery/selection medium 0/0/10",21.7
same,Average (n = 12) number of transformants observed per selection plate,"[1]; line P3, ABA mg/l preparation/recovery/selection medium 0/0/30",22.3
same,Average (n = 12) number of transformants observed per selection plate,"[1]; line P3, ABA mg/l preparation/recovery/selection medium 0/10/10",23.3
same,Average (n = 12) number of transformants observed per selection plate,"[1]; line P3, ABA mg/l preparation/recovery/selection medium 0/10/30",26.0
same,Average (n = 12) number of transformants observed per selection plate,"[1]; line P3, ABA mg/l preparation/recovery/selection medium 0/30/30",18.6
same,Average (n = 12) number of transformants observed per selection plate,"[1]; line P3, ABA mg/l preparation/recovery/selection medium 10/10/10",22.6
same,Average (n = 12) number of transformants observed per selection plate,"[1]; line P3, ABA mg/l preparation/recovery/selection medium 30/10/10",21.6
same,Average (n = 12) number of transformants observed per selection plate,"[1]; line P3, ABA mg/l preparation/recovery/selection medium 30/30/30",21.1
same,Average (n = 12) number of transformants observed per selection plate,"[1]; line P4, ABA mg/l preparation/recovery/selection medium 0/0/10",27.5
same,Average (n = 12) number of transformants observed per selection plate,"[1]; line P4, ABA mg/l preparation/recovery/selection medium 0/0/30",34.9
same,Average (n = 12) number of transformants observed per selection plate,"[1]; line P4, ABA mg/l preparation/recovery/selection medium 0/10/10",28.8
same,Average (n = 12) number of transformants observed per selection plate,"[1]; line P4, ABA mg/l preparation/recovery/selection medium 0/10/30",30.9
same,Average (n = 12) number of transformants observed per selection plate,"[1]; line P4, ABA mg/l preparation/recovery/selection medium 0/30/30",28.6
same,Average (n = 12) number of transformants observed per selection plate,"[1]; line P4, ABA mg/l preparation/recovery/selection medium 10/10/10",27.8
same,Average (n = 12) number of transformants observed per selection plate,"[1]; line P4, ABA mg/l preparation/recovery/selection medium 30/10/10",22.7
same,Average (n = 12) number of transformants observed per selection plate,"[1]; line P4, ABA mg/l preparation/recovery/selection medium 30/30/30",27.3
same,Average (n = 12) number of transformants observed per selection plate,"[1]; line P5, ABA mg/l preparation/recovery/selection medium 0/0/10",18.1
same,Average (n = 12) number of transformants observed per selection plate,"[1]; line P5, ABA mg/l preparation/recovery/selection medium 0/0/30",5.5
same,Average (n = 12) number of transformants observed per selection plate,"[1]; line P5, ABA mg/l preparation/recovery/selection medium 0/10/10",2.4
same,Average (n = 12) number of transformants observed per selection plate,"[1]; line P5, ABA mg/l preparation/recovery/selection medium 0/10/30",7.2
same,Average (n = 12) number of transformants observed per selection plate,"[1]; line P5, ABA mg/l preparation/recovery/selection medium 0/30/30",3.3
same,Average (n = 12) number of transformants observed per selection plate,"[1]; line P5, ABA mg/l preparation/recovery/selection medium 10/10/10",10.3
same,Average (n = 12) number of transformants observed per selection plate,"[1]; line P5, ABA mg/l preparation/recovery/selection medium 30/10/10",11.3
same,Average (n = 12) number of transformants observed per selection plate,"[1]; line P5, ABA mg/l preparation/recovery/selection medium 30/30/30",14.3
same,Average (n = 12) number of transformants observed per selection plate,"[1]; line P6, ABA mg/l preparation/recovery/selection medium 0/0/10",3.9
same,Average (n = 12) number of transformants observed per selection plate,"[1]; line P6, ABA mg/l preparation/recovery/selection medium 0/0/30",3.3
same,Average (n = 12) number of transformants observed per selection plate,"[1]; line P6, ABA mg/l preparation/recovery/selection medium 0/10/10",3.2
same,Average (n = 12) number of transformants observed per selection plate,"[1]; line P6, ABA mg/l preparation/recovery/selection medium 0/10/30",3.2
same,Average (n = 12) number of transformants observed per selection plate,"[1]; line P6, ABA mg/l preparation/recovery/selection medium 0/30/30",2.3
same,Average (n = 12) number of transformants observed per selection plate,"[1]; line P6, ABA mg/l preparation/recovery/selection medium 10/10/10",4.5
same,Average (n = 12) number of transformants observed per selection plate,"[1]; line P6, ABA mg/l preparation/recovery/selection medium 30/10/10",3.1
same,Average (n = 12) number of transformants observed per selection plate,"[1]; line P6, ABA mg/l preparation/recovery/selection medium 30/30/30",2.3
same,Average (n = 12) number of transformants observed per selection plate,[2]; ABA mg/l preparation/recovery/selection medium 0/0/10,27.0
same,Average (n = 12) number of transformants observed per selection plate,[2]; ABA mg/l preparation/recovery/selection medium 0/0/30,21.1
same,Average (n = 12) number of transformants observed per selection plate,[2]; ABA mg/l preparation/recovery/selection medium 0/10/10,19.0
same,Average (n = 12) number of transformants observed per selection plate,[2]; ABA mg/l preparation/recovery/selection medium 0/10/30,21.6
same,Average (n = 12) number of transformants observed per selection plate,[2]; ABA mg/l preparation/recovery/selection medium 0/30/30,15.1
same,Average (n = 12) number of transformants observed per selection plate,[2]; ABA mg/l preparation/recovery/selection medium 10/10/10,21.9
same,Average (n = 12) number of transformants observed per selection plate,[2]; ABA mg/l preparation/recovery/selection medium 30/10/10,22.9
same,Average (n = 12) number of transformants observed per selection plate,[2]; ABA mg/l preparation/recovery/selection medium 30/30/30,21.8
same,transformants from a cell line of progeny of the P. taeda elite line 7–56,[3]; 10 mg/L ABA in selection medium,observed only on treatments that had contained ABA in the selection medium
same,number of transformants obtained when ABA was present during the entire selection period,"[3]; 10 mg/l ABA in DCR selection medium, nine weeks, all lines tested",equal to or greater than the number obtained for any other treatment
